Source: the supplement of paper PMC8149375

How the values were obtained:
Conditions in all cases: treatment: drug alone; 5 days
SN12C [1] = assay: AUC of dose-response viability curve, drug alone (arbitrary (AUC of normalised viability)); higher = less growth inhibition
Method: (§1)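 Primary HTS: 8 RCC cell lines treated with 8 doses (up to 10 uM) of each library drug alone for 5 days; viability read by CellTiter-Glo and normalised to DMSO. GI50 was fitted with XLfit (4-parameter), AUC is the area under the dose-response curve, and minimum viability is the lowest fraction of DMSO viability across doses.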

786-O [2] = assay: as above
Method: as §1

A498 [3] = assay: as above
Method: as §1

CAKI-1 [4] = assay: as above
Method: as §1

769-P [5] = assay: as above
Method: as §1

TK-10 [6] = assay: as above
Method: as §1

ACHN [7] = assay: as above
Method: as §1

UO-31 [8] = assay: as above
Method: as §1

SN12C [9] = assay: minimum viability across doses, drug alone, relative to DMSO (fraction); higher = less growth inhibition
Method: as §1

786-O [10] = assay: as above
Method: as §1

A498 [11] = assay: as above
Method: as §1

CAKI-1 [12] = assay: as above
Method: as §1

769-P [13] = assay: as above
Method: as §1

TK-10 [14] = assay: as above
Method: as §1

ACHN [15] = assay: as above
Method: as §1

UO-31 [16] = assay: as above
Method: as §1

SN12C [17] = assay: GI50, drug alone; higher = less potent
Method: as §1

786-O [18] = assay: GI50, drug alone; higher = less potent
Method: as §1

A498 [19] = assay: GI50, drug alone; higher = less potent
Method: as §1

CAKI-1 [20] = assay: GI50, drug alone; higher = less potent
Method: as §1

769-P [21] = assay: GI50, drug alone; higher = less potent
Method: as §1

TK-10 [22] = assay: GI50, drug alone; higher = less potent
Method: as §1

ACHN [23] = assay: GI50, drug alone; higher = less potent
Method: as §1

UO-31 [24] = assay: GI50, drug alone; higher = less potent
Method: as §1

Row | Compound | AUC of dose-response viability curve (SN12C [1]) | AUC of dose-response viability curve (786-O [2]) | AUC of dose-response viability curve (A498 [3]) | AUC of dose-response viability curve (CAKI-1 [4]) | AUC of dose-response viability curve (769-P [5]) | AUC of dose-response viability curve (TK-10 [6]) | AUC of dose-response viability curve (ACHN [7]) | AUC of dose-response viability curve (UO-31 [8]) | minimum viability across doses (SN12C [9]) | minimum viability across doses (786-O [10]) | minimum viability across doses (A498 [11]) | minimum viability across doses (CAKI-1 [12]) | minimum viability across doses (769-P [13]) | minimum viability across doses (TK-10 [14]) | minimum viability across doses (ACHN [15]) | minimum viability across doses (UO-31 [16]) | GI50, drug alone (SN12C [17]) [nM] | GI50, drug alone (786-O [18]) [nM] | GI50, drug alone (A498 [19]) [nM] | GI50, drug alone (CAKI-1 [20]) [nM] | GI50, drug alone (769-P [21]) [nM] | GI50, drug alone (TK-10 [22]) [nM] | GI50, drug alone (ACHN [23]) [nM] | GI50, drug alone (UO-31 [24]) [nM]
1 | Nc1cc(C(F)(F)F)c(-c2cc(N3CCOCC3)nc(N3CCOCC3)n2)cn1 [BKM120 (NVP-BKM120)] | 2.23 | 1.56 | 2.89 | 2.31 | 2.57 | 2.2 | 2.31 | 2.65 | 0.0728 | 0.00247 | 0.134 | 0.0499 | 0.0668 | 0.0981 | 0.0858 | 0.0226 | 1670 | 179 | 1930 | 608 | 1570 | 641 | 887 | 1450
2 | COc1cc(Nc2ncc(F)c(Nc3ccc4c(n3)N(COP(=O)(O)O)C(=O)C(C)(C)O4)n2)cc(OC)c1OC [R788 (Fostamatinib)] | 2.79 | 2.54 | 4.24 | 2.49 | 2.94 | 2.64 | 2.73 | 4.78 | 0.287 | 0.158 | 1.06 | 0.0246 | 0.145 | 0.308 | 0.0584 | 0.00902 | 2980 | 1160 | > 10000 | 913 | 3500 | 3300 | 1220 | 6020
3 | O=C(Nc1cccc(Nc2ncc(Br)c(NCCc3cnc[nH]3)n2)c1)N1CCCC1 [BX-912] | 2.94 | 2.16 | 4.04 | 2.59 | 3.15 | 2.81 | 3.08 | 3.91 | 0.266 | 0.0508 | 0.742 | 0.139 | 0.587 | 0.292 | 0.251 | 0.961 | 5440 | 2040 | > 10000 | 2070 | > 10000 | 5330 | 4200 | > 10000
4 | Cn1cc(C2=C(c3ccc(Cl)cc3Cl)C(=O)NC2=O)c2ccccc21 | 3.43 | 3.26 | 3.79 | 0.987 | 3.2 | 3.26 | 3.26 | 3.98 | 0.908 | 0.814 | 0.907 | 0.839 | 0.386 | 0.629 | 0.821 | 0.801 | > 10000 | > 10000 | > 10000 | > 10000 | 8530 | > 10000 | > 10000 | > 10000
5 | CC(C)(C)c1cc(/C=C(\C#N)C(N)=S)cc(C(C)(C)C)c1O [Tyrphostin AG 879 (AG 879)] | 3.11 | 1.6 | 4.17 | 3.62 | 3.56 | 2.95 | 3.12 | 5.27 | 0.787 | 0.257 | 1.02 | 0.712 | 0.91 | 0.748 | 0.78 | 1.28 | > 10000 | < 3 | > 10000 | > 10000 | > 10000 | > 10000 | > 10000 | > 10000
6 | CC(=O)NCC(=O)N1[C@H]2CC[C@H]1c1cc(Nc3ncc(C(F)(F)F)c(NC4CCC4)n3)ccc12 | 2.12 | 0.907 | 3.32 | 1.81 | 2.09 | 2.18 | 1.5 | 2.54 | 0.0115 | 0.0093 | 0.0256 | 0.123 | 0.0288 | 0.128 | 0.0112 | 0.0196 | 557 | 15.1 | 4770 | 173 | 375 | 725 | 80.6 | 2640
7 | CCO.N#CC(=C(/N)Sc1ccccc1N)/C(C#N)=C(\N)Sc1ccccc1N [U0126-EtOH] | 3.49 | 2.86 | 3.94 | 3.35 | 3.3 | 2.95 | 3.17 | 4 | 0.901 | 0.576 | 0.913 | 0.564 | 0.806 | 0.656 | 0.646 | 0.943 | > 10000 | > 10000 | > 10000 | > 10000 | > 10000 | > 10000 | > 10000 | > 10000
8 | Cn1cnc(-c2cc3nccc(Oc4ccc(NC(=S)NC(=O)Cc5ccccc5)cc4F)c3s2)c1 [MGCD-265] | 3.45 | 3.29 | 4.09 | 3.59 | 3.46 | 3.44 | 3.43 | 5.1 | 0.674 | 0.785 | 0.977 | 0.635 | 0.898 | 0.938 | 0.76 | 1.01 | > 10000 | > 10000 | > 10000 | > 10000 | > 10000 | > 10000 | > 10000 | > 10000
9 | Cc1c(CN2CCN(C(=O)[C@H](C)O)CC2)sc2c(N3CCOCC3)nc(-c3cnc(N)nc3)nc12 [GDC-0980 (RG7422)] | 2.07 | 2.23 | 3.1 | 1.75 | 2.2 | 1.73 | 1.89 | 2.23 | 0.133 | 0.0296 | 0.215 | 0.0405 | 0.0688 | 0.0656 | 0.0739 | 0.0186 | 370 | 495 | 1360 | 190 | 495 | 167 | 231 | 311
10 | Cc1ccc(NC(=O)c2ccc(CN3CCN(C)CC3)cc2)cc1Nc1nccc(-c2cccnc2)n1 [Imatinib (Gleevec)] | 3.06 | 2.36 | 3.83 | 3.35 | 3.23 | 3.07 | 3.41 | 4.67 | 0.77 | 0.514 | 0.919 | 0.891 | 0.858 | 0.829 | 0.802 | 1.03 | > 10000 | > 10000 | > 10000 | > 10000 | > 10000 | > 10000 | > 10000 | > 10000
11 | COC1=CC(c2cc3ccccc3[nH]2)=N/C1=C\c1[nH]c(C)cc1C.CS(=O)(=O)O [Obatoclax mesylate (GX15-070)] | 1.74 | 0.668 | 1.95 | 2.23 | 2.01 | 1.79 | 1.41 | 2.07 | 0.00313 | 0.0051 | 0.00496 | 0.011 | 0.0323 | 0.17 | 0.0118 | 0.00526 | 213 | 7.53 | 438 | 379 | 309 | 185 | 81.1 | 158
12 | Cc1ccc(NC(=O)c2cccc(N(C)C)c2)cc1NC(=O)c1ccc(O)cc1 | 3.31 | 2.5 | 4.56 | 3.64 | 3.39 | 2.59 | 3.32 | 4.13 | 0.845 | 0.535 | 0.864 | 0.984 | 0.92 | 0.677 | 0.816 | 0.895 | > 10000 | > 10000 | > 10000 | > 10000 | > 10000 | > 10000 | > 10000 | > 10000
13 | Cc1ccccc1-n1c(Cn2cnc3c(N)ncnc32)nc2cccc(C)c2c1=O | 3.12 | 2.46 | 3.88 | 3.12 | 3.25 | 2.93 | 3.17 | 3.41 | 0.814 | 0.434 | 0.955 | 0.717 | 0.856 | 0.758 | 0.813 | 0.821 | > 10000 | 7980 | > 10000 | > 10000 | > 10000 | > 10000 | > 10000 | > 10000
14 | S=C(NCc1ccc2c(c1)OCO2)N1CCN(c2ncnc3c2oc2ccccc23)CC1 [Amuvatinib (MP-470)] | 2.63 | 2.22 | 3.63 | 3.74 | 3.25 | 2.82 | 2.87 | 3.73 | 0.0586 | 0.104 | 0.103 | 0.832 | 0.527 | 0.28 | 0.113 | 0.0651 | 1560 | 686 | 3140 | > 10000 | > 10000 | 4830 | 2630 | 2680
15 | COc1cc(Nc2c(C#N)cnc3cc(OCCCN4CCN(C)CC4)c(OC)cc23)c(Cl)cc1Cl [Bosutinib (SKI-606)] | 2.34 | 2.94 | 3.08 | 2.38 | 2.68 | 2.61 | 2.16 | 2.35 | 0.126 | 0.0159 | 0.233 | 0.0478 | 0.111 | 0.0431 | 0.0885 | 0.00817 | 1140 | 2510 | 5050 | 849 | 1650 | 1210 | 429 | > 10000
16 | CO[C@H]1CC2CC[C@@H](C)[C@@](O)(O2)C(=O)C(=O)N2CCCC[C@H]2C(=O)O[C@H]([C@H](C)C[C@@H]2CCC(OC(=O)C(C)(CO)CO)[C@H](OC)C2)CC(=O)[C@H](C)/C=C(\C)[C@@H](O)[C@@H](OC)C(=O)[C@H](C)C[C@H](C)/C=C/C=C/C=C/1C (stereo in doubt) [Temsirolimus (Torisel)] | 2.31 | 1.31 | 2.57 | 2.15 | 2.8 | 2.39 | 2.03 | 1.58 | 0.578 | 0.294 | 0.641 | 0.433 | 0.62 | 0.486 | 0.407 | 0.299 | > 10000 | < 3 | > 10000 | 1270 | > 10000 | 3900 | 386 | 80.3
17 | CO[C@H]1C[C@H]2CC[C@@H](C)[C@@](O)(O2)C(=O)C(=O)N2CCCC[C@H]2C(=O)O[C@H]([C@H](C)C[C@@H]2CC[C@H](OP(C)(C)=O)[C@H](OC)C2)CC(=O)[C@H](C)/C=C(\C)[C@@H](O)[C@@H](OC)C(=O)[C@H](C)C[C@H](C)/C=C/C=C/C=C/1C (stereo in doubt) [Deforolimus (Ridaforolimus)] | 2.23 | 1.24 | 2.6 | 2.1 | 2.66 | 2.42 | 1.98 | 0.965 | 0.443 | 0.271 | 0.636 | 0.456 | 0.607 | 0.542 | 0.409 | 0.0878 | 454 | < 3 | > 10000 | 1070 | > 10000 | > 10000 | 559 | 7.75
